# Laboratory results as given in patent US11590116B2 (THERAVANCE BIOPHARMA R&D IP, LLC, priority 2019, dated 2023).
# Tests used:
# [1] = system: TGF-β-stimulated SMAD3 phosphorylation in BEAS-2B cells; assay: Cellular ALK5 potency assay, inhibition of TGF-β stimulated pSMAD3 formation in BEAS-2B cells; type: cell-based; settings: Homo sapiens; inhibition of TGF-β stimulated pSMAD3 formation, BEAS-2B cells; read-out: BEAS2B pIC50 (converted)
# Summary of the method: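 Potency is reported as pIC50, derived from concentration-dependent reduction of pSMAD3 AlphaLISA signal against TGF-β-stimulated cells without compound. BEAS-2B cells received compound for 1 h before a 30-min stimulation with 10 ng/mL TGF-β.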
# [2] = biological target: T1, recombinant human ALK5 (TGF-βR1) protein (Homo sapiens, UniProt P36897); assay: Biochemical ALK5 (TGF-βR1) assay to measure pKi (LANCE Ultra ULight kinase assay); settings: apparent pKi from pIC50 by Cheng-Prusoff, read-out: ALK5 pKi (converted)
# T1 construct: purchased Life Technologies PR9075A
# T1 sequence (P36897 34-503): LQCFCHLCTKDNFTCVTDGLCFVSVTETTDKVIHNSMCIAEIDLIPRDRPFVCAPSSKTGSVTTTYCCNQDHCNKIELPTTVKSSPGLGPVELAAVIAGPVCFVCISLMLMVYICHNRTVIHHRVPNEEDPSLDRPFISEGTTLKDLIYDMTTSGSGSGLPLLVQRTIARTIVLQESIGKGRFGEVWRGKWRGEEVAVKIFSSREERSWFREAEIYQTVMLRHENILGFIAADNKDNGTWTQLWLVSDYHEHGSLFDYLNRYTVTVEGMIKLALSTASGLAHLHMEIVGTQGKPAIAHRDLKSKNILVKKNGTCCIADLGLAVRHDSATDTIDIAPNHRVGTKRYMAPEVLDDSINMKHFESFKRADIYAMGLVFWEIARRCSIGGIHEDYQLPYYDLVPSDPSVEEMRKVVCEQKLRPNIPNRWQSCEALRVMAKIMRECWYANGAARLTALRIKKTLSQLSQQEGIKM
# Summary of the method: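 After a 60 min room-temperature preincubation of ALK5 with compound, phosphorylation proceeds 60 min at 37 °C on ATP addition (125 μM as 5× stock). Detection: Eu-labelled phospho-Thr1342 Topo IIα antibody in EDTA buffer, pH 7.0; emission 665 nm.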
Ki [2],SMILES,IC50 [1]
< 0.0316 nM,"Cc1cccc(-c2[nH]cnc2-c2ccc3ncc(-c4cccc(C(=O)O[C@@H]5CCNC5)n4)cc3c2)n1 [Compound 1126, [(3R)-pyrrolidin-3-yl] 6-[6-[5-(6-methyl-2-pyridyl)-1H-imidazol-4-yl]-3-quinolyl]pyridine-2-carboxylate]",25.1 to 158 nM
0.0398 to 0.316 nM,"Cc1cccc(-c2[nH]cnc2-c2ccc3ncc(-c4ccc(C(=O)OCC5CNC5)s4)cc3c2)n1 [Compound 1007, azetidin-3-ylmethyl 5-(6-(5-(6-methylpyridin-2-yl)-1H-imidazol-4-yl)quinolin-3-yl)thiophene-2-carboxylate]",25.1 to 158 nM
0.0398 to 0.316 nM,"Cc1cccc(-c2[nH]cnc2-c2ccc3ncc(-c4cccc(N5CCNCC5)n4)cc3c2)n1 [Compound 1100, 6-[5-(6-methyl-2-pyridyl)-1H-imidazol-4-yl]-3-(6-piperazin-1-yl-2-pyridyl)quinoline]",< 20 nM
0.0398 to 0.316 nM,"Cc1cccc(-c2[nH]cnc2-c2ccc3ncc(-c4ccc(C(=O)O[C@@H]5CCN(C)C5)s4)cc3c2)n1 [Compound 1009, (R)-1-methylpyrrolidin-3-yl 5-(6-(5-(6-methylpyridin-2-yl)-1H-imidazol-4-yl)quinolin-3-yl)thiophene-2-carboxylate]",25.1 to 158 nM
0.0398 to 0.316 nM,"Cc1cccc(-c2[nH]cnc2-c2ccc3ncc(-c4cc(C(=O)OCCN5CCNCC5)ccn4)cc3c2)n1 [Compound 1123, 2-piperazin-1-ylethyl 2-[6-[5-(6-methyl-2-pyridyl)-1H-imidazol-4-yl]-3-quinolyl]pyridine-4-carboxylate]",25.1 to 158 nM
0.0398 to 0.316 nM,"Cc1cccc(-c2[nH]cnc2-c2ccc3ncc(C(=O)OCCCC4CNC4)cc3c2)n1 [Compound 1090, 3-(azetidin-3-yl)propyl 6-[5-(6-methyl-2-pyridyl)-1H-imidazol-4-yl]quinoline-3-carboxylate]",200 to 1260 nM

# The remaining lines, values behind:
SMILES,Ki [2],IC50 [1]
"Cc1cccc(-c2n[nH]cc2-c2ccc3ncc(-c4ncn5c4NCC5)cc3n2)n1 [Compound 445, 7-(2,3-dihydro-1H-imidazo[1,5-a]imidazol-7-yl)-2-[3-(6-methyl-2-pyridyl)-1H-pyrazol-4-yl]-1,5-naphthyridine]",0.0398 to 0.316 nM,25.1 to 158 nM
"Cc1cccc(-c2[nH]cnc2-c2ccc3ncc(C4=CCC(NC(=O)CC5CNC5)CC4)cc3c2)n1 (racemic) [Compound 793, 2-(azetidin-3-yl)-N-[rac-(1R)-4-[6-[5-(6-methyl-2-pyridyl)-1H-imidazol-4-yl]-3-quinolyl]cyclohex-3-en-1-yl]acetamide]",0.0398 to 0.316 nM,200 to 1260 nM
"CC(C)N1CCN(CCNc2cnc3ccc(-c4c[nH]nc4-c4cccc(C(F)F)n4)nc3c2)CC1 [Compound 226, 6-[3-[6-(difluoromethyl)-2-pyridyl]-1H-pyrazol-4-yl]-N-[2-(4-isopropylpiperazin-1-yl)ethyl]-1,5-naphthyridin-3-amine]",0.0398 to 0.316 nM,25.1 to 158 nM
"Cc1cccc(-c2[nH]cnc2-c2ccc3ncc(C(=O)OC4CNC4)cc3c2)n1 [Compound 739, azetidin-3-yl 6-[5-(6-methyl-2-pyridyl)-1H-imidazol-4-yl]quinoline-3-carboxylate]",0.0398 to 0.316 nM,25.1 to 158 nM
"Cc1cccc(-c2n[nH]cc2-c2ccc3ncc(-c4cccnc4O)cc3n2)n1 [Compound 585, 3-[6-[3-(6-methyl-2-pyridyl)-1H-pyrazol-4-yl]-1,5-naphthyridin-3-yl]pyridin-2-ol]",< 0.0316 nM,25.1 to 158 nM
"CNC1CCN(c2cnc3ccc(-c4c[nH]nc4-c4cccc(C(C)C)n4)nc3c2)CC1 [Compound 364, 1-[6-[3-(6-isopropyl-2-pyridyl)-1H-pyrazol-4-yl]-1,5-naphthyridin-3-yl]-N-methyl-piperidin-4-amine]",0.0398 to 0.316 nM,25.1 to 158 nM
"Cc1cccc(-c2nc3ccccn3c2-c2ccc3ncc(N4CCNCC4)cc3c2)n1 [Compound 287, 6-[2-(6-methyl-2-pyridyl)imidazo[1,2-a]pyridin-3-yl]-3-piperazin-1-yl-quinoline]",0.0398 to 0.316 nM,25.1 to 158 nM
